According to patent publication US20110293746A1, “Modulation of Gsk-3Beta and Method of Treating Proliferative Disorders” (Agency For Science, Technology and Research, priority 2004, published 2011):
“Also recorded” adds a separate entry of the source.

Key:
GSK-3β = molecular target: T1, GSK-3β (Homo sapiens, UniProt P49841); assay: Immunoblot analysis of GSK-3 phosphorylation status in HCT116 cells; format: cell-based
T1 construct: endogenous in cells; host or cells: HCT116
Protocol: (§1) Protein concentration was quantified (Bio-Rad, Hercules, Calif.) and protein samples (50 μg) were separated by SDS/PAGE and transferred onto Immobilon™ membranes (Millipore, Bedford, Mass.). […] To detect Bax conformational change, cells were lysed in 1% Chaps buffer and the soluble fraction was immunoprecipitated with anti-Bax monoclonal antibody (6A7, BD, PharMingen), followed by immunoblotting with anti-Bax polyclonal antibody.
(§2) Subcellular fractionation: Cells were lysed in mitochondria lysis buffer (210 mM Mannitol, 70 mM Sucrose, 10 mM Hepes (pH, 7.4), 1 mM EDTA, protease inhibitor cocktail) with a Dounce homogenizer and subjected to centrifugation at 1000×g to pellet the nuclei. Post-nuclear supernatant was centrifuged at 10,000×g to pellet the mitochondria-enriched heavy membrane fraction, and the resulting supernatant was further centrifuged to obtain cytosolic fraction. Total proteins (30 μg) from cytosolic or mitochondrial fractions were subjected to immunoblot analysis.

GSK-3α = molecular target: T2, GSK-3α (Homo sapiens, UniProt P49840); assay: as above; format: cell-based
T2 construct: endogenous in cells; host or cells: HCT116
Protocol: as §1, §2

HCT116 p53 −/− cells = assay: FACS analysis of DNA content (sub-G1 apoptotic fraction); format: cell-based, Human
Protocol: (§3) Cell culture and drug treatments: Human colon cancer cell line HCT116 and its derived isogenic p53^−/−, Puma^−/−, Bax^−/− and p53-inducible DLD cell lines were kindly provided by Dr. Bert Vogelstein (Johns Hopkins University, MD). RKO and RKO/E6 cells were from ATCC. Cells were cultured in DMEM containing 10% FBS. All culture reagents and media were from Invitrogen. 5-Fluorouracil, Adriamycin, etoposide and lithium chloride were purchased from Sigma. GSK-3β specific small molecule inhibitor LY2119301 was a gift from Eli Lilly (Indianapolis) and SB-216763, SB-415283 were obtained from BIOMOL.
(§4) FACS analysis of DNA content and caspase-3 activity: Cells were harvested and fixed in 70% ethanol. Fixed cells were stained with propidium iodide (50 μg/ml) after treatment with RNase (100 μg/ml). The stained cells were analyzed for DNA content by fluorescence-activated cell sorting (FACS) in a FACScalibur™ (Becton Dickinson Instrument, San Jose, Calif.). Cell cycle fractions were quantified using the CellQues™ software (Becton Dickinson). To measure caspase-3 activity, cells were fixed with Cytofix/Cytoperm™ solution (BD PharMingen) as instructed, and then stained with FITC-conjugated rabbit anti-active caspase-3 monoclonal antibody (BD PharMingen). Quantification of cells positive for the caspase-3 detection was performed by flow cytometry.

HCT116 cells [1] = assay: as above; format: cell-based, Human
Protocol: as §3, §4

[2] = tested on: HCT116 cells expressing p53 shRNA; assay: FACS apoptosis in HCT116 cells expressing p53 shRNA; format: cell-based, Human; details: LY2119301 and ADR (1 μM) or 5-FU (100 μM), 24 h, p53 knockdown
Protocol: as §4
RNA interference: To generate knockdown vectors for p53, the following 19-nucleotide sequence was used: […] [SEQ ID NO: 1]. The oligonucleotide pair was cloned into the retroviral expression vector pSIREN-RetroQ™ (BD Bioscienses) according to the manufacturer's instructions. Briefly, 293 cells were transfected with the p53 shRNA construct for 48 h to produce viral particles. To establish p53 shRNA stable transfection clones, HCT116 cells were infected with retroviral stocks in the presence of 5 μg/ml polybrene. Infected cells were subject to puromycin selection at 2 μg/ml. […]

HCT116 cells [3] = assay: Western blots of cytosolic fractions: cytochrome c release and caspase-9 processing; format: cell-based, Human; details: after DNA damage (ADR or etoposide) in presence of LY2119301
Protocol: Western blotting, immunoprecipitation and microarray analysis: Cells were scraped, collected and lysed as described previously (Yu, Q., et al. Cancer Res, 62: 5743-5748, 2002). Briefly, cells were lysed with cell lysis buffer (0.3% NP40, 1 mM EDTA, 50 mM Tris-HCl (pH 7.4), 2 mM EGTA, 1% Triton X-100, […], 25 mM NaF, 1 mM Na3VO4, 2 mM AEBSF, 5 μg/ml aprotinin, 1 μg/ml leupeptin) for 30 minutes on ice, and the lysates were clarified by centrifugation at 12,000×g for 15 minutes at 4° C. Protein concentration was quantified (Bio-Rad, Hercules, Calif.) and protein samples (50 μg) were separated by SDS/PAGE and transferred onto Immobilon™ membranes (Millipore, Bedford, Mass.). Antibodies against the following proteins were used: p53 (DO-1), p21, PARP, GSK-α/β, α-Tubulin, and β-actin (Santa Cruz Biotechnology), Puma (Ab-1, Oncogene), Bax (Sigma), phosphor-(Ser9/21)-GSK-3α/β and Caspase-9 (Cell Signaling Technologies), phosphor-(Tyr216/279)-GSK-3α/β (Upstate Biotechnologies), cytochrome c (BD PharMingen). To detect Bax conformational change, cells were lysed in 1% Chaps buffer and the soluble fraction was immunoprecipitated with anti-Bax monoclonal antibody (6A7, BD, PharMingen), followed by immunoblotting with anti-Bax polyclonal antibody. Microarray analysis was performed as described (Kho, P. S., et al. J Biol Chem, 279: 21183-21192, 2004). […]

p53 in HCT116 cells = assay: p53 accumulation in cytosol and mitochondria (subcellular fractionation, Western blot); format: cell-based, Human; details: in the presence of LY2119301, etoposide 24 h
Protocol: Western blotting, immunoprecipitation and microarray analysis: Cells were scraped, collected and lysed as described previously (Yu, Q., et al. Cancer Res, 62: 5743-5748, 2002). Briefly, cells were lysed with cell lysis buffer (0.3% NP40, 1 mM EDTA, 50 mM Tris-HCl (pH 7.4), 2 mM EGTA, 1% Triton X-100, […], 25 mM NaF, 1 mM Na3VO4, 2 mM AEBSF, 5 μg/ml aprotinin, 1 μg/ml leupeptin) for 30 minutes on ice, and the lysates were clarified by centrifugation at 12,000×g for 15 minutes at 4° C. Protein concentration was quantified (Bio-Rad, Hercules, Calif.) and protein samples (50 μg) were separated by SDS/PAGE and transferred onto Immobilon™ membranes (Millipore, Bedford, Mass.). Antibodies against the following proteins were used: p53 (DO-1), p21, PARP, GSK-α/β, α-Tubulin, and β-actin (Santa Cruz Biotechnology), Puma (Ab-1, Oncogene), Bax (Sigma), phosphor-(Ser9/21)-GSK-3α/β and Caspase-9 (Cell Signaling Technologies), phosphor-(Tyr216/279)-GSK-3α/β (Upstate Biotechnologies), cytochrome c (BD PharMingen). To detect Bax conformational change, cells were lysed in 1% Chaps buffer and the soluble fraction was immunoprecipitated with anti-Bax monoclonal antibody (6A7, BD, PharMingen), followed by immunoblotting with anti-Bax polyclonal antibody. Microarray analysis was performed as described (Kho, P. S., et al. J Biol Chem, 279: 21183-21192, 2004).
as §2

HCT116 cells (Bax+/+) = assay: Mitochondrial membrane potential by JC-1 staining and FACS; format: cell-based, Human; details: co-treated with LY2119301 and genotoxic treatments
Protocol: (§5) Measurement of mitochondrial permeability transition: Cells were harvested by centrifugation at 300×g at 4° C. for 5 min. Mitochondrial permeability transition was determined by staining the cells with JC-1 (BD PharMingen) according to the manufacturer's instructions. Mitochondrial permeability transition was quantified by flow cytometric determination of cells with decreased red fluorescence, i.e. with mitochondria displaying a lower membrane potential (ΔΨm). Data are given in percentage of cells with low ΔΨm.

HCT116 Bax −/− cells = assay: as above; format: cell-based, Human; details: co-treated with LY2119301 and genotoxic treatments
Protocol: as §5

[4] = nuclear and cytoplasmic fractions

T1 sequence (P49841 whole entry): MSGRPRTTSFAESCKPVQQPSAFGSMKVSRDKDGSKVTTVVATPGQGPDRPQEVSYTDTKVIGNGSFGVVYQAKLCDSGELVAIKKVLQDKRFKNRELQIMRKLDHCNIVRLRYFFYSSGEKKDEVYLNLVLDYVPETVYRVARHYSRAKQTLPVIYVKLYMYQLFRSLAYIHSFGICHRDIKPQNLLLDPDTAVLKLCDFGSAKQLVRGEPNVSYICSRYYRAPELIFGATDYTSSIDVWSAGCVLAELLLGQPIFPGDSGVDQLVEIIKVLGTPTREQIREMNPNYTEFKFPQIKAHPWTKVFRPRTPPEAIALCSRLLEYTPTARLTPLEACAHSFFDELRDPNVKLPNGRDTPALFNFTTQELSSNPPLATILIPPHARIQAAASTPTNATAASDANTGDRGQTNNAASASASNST
T2 sequence (P49840 whole entry): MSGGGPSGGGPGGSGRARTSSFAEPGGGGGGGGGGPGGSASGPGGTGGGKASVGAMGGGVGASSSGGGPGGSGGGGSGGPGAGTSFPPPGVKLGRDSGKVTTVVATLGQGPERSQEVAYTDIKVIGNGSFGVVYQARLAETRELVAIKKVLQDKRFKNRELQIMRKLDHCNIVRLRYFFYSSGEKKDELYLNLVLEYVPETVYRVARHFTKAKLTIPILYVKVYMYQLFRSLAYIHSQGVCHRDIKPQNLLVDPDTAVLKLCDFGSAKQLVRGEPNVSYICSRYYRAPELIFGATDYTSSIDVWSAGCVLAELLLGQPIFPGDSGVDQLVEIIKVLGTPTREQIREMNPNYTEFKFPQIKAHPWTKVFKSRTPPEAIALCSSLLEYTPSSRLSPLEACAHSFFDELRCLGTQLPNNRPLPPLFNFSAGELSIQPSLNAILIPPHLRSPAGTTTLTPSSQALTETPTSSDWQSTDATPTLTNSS

CN1CCN(c2ccc(NCCNc3ccc([N+](=O)[O-])c(N)n3)nc2-c2ccc(Cl)cc2Cl)C(=O)C1 [LY2119301] was tested, and the “activating tyrosine phosphorylation on GSK-3β” value (GSK-3β; HCT116 whole lysate immunoblot) was “almost completely blocked”, the “inhibitory serine 9 phosphorylation on GSK-3β” value (GSK-3β; HCT116 whole lysate immunoblot) was “increase” and the “tyrosine phosphorylation of GSK-3β” value (GSK-3β; [4]) was “blocked”. The “serine phosphorylation on GSK-3β in cytoplasm and nucleus” value (GSK-3β; nuclear and cytoplasmic fractions, with or without DNA damage) was “triggered”, the “activating tyrosine phosphorylation on GSK-3α” value (GSK-3α; HCT116 whole lysate immunoblot) was “almost completely blocked” and the “inhibitory serine 21 phosphorylation on GSK-3α” value (GSK-3α; HCT116 whole lysate immunoblot) was “much lesser extent”. For the same compound, the “tyrosine phosphorylation of GSK-3α” value (GSK-3α; [4]) was “blocked”, the 5-FU-induced apoptosis (HCT116 p53 −/− cells; 5-FU in presence of LY2119301, cells null for p53) was “no increased apoptosis” and the “synergistic induction of cell death” value (HCT116 p53 −/− cells; ADR and LY2119301 co-treatment, 24 h, p53 knockout) was “not seen”. The 5-FU-induced apoptosis (HCT116 cells [1]; 5-FU in presence of LY2119301) was “greatly sensitized”, the “apoptosis in response to other DNA damaging agents” value (HCT116 cells [1]; LY2119301 with etoposide (10 μM) or camptothecin (100 nM), 24 h) was “triggered p53-dependent apoptosis; also recorded: robust apoptosis” and the “cell death, sub-G1 population” value (HCT116 cells [1]; co-treatment ADR (1 μM) and LY2119301 (5 μM), 24 h) was roughly 59%. The “increase in apoptosis induction by 5-FU” value (HCT116 cells [1]; dose-effect experiments, 5-FU in presence of LY2119301) was 10 fold, the “concentration able to induce apoptosis in ADR-treated cells (as low as)” value (HCT116 cells [1]; with ADR) was 250 nM and the “apoptosis induction by co-treatment vs control vector cells” value [2] was “significantly reduced”. For the same compound, the “caspase 9 processing” value (HCT116 cells [3]) was “evident”, the cytochrome c release (HCT116 cells [3]) was “increased” and the “etoposide-induced p53 accumulation in cytosol” value (p53 in HCT116 cells) was “similarly decreased”. The “etoposide-induced p53 accumulation in mitochondria” value (p53 in HCT116 cells) was “similarly decreased”, the mitochondrial membrane potential (HCT116 cells (Bax+/+)) was “significant reduction” and the “reduction of mitochondrial membrane potential” value (HCT116 Bax −/− cells) was “not”.
